Assays:
[1] = system: norepinephrine transporter (NET); set-up: method as in PMID 30904940; conditions: cited from earlier work
DIO C57BL/6 mice [2] = assay: Glucose tolerance test (ipGTT) and insulin tolerance test (ipITT) in DIO mice; assay type: in vivo; conditions: 40 mg/kg/day
Procedure: (§1) Male C57BL/6 mice were used to establish DIO by feeding them a high-fat diet (HFD; 60% cal/L fat, 20% cal/L protein, and 20% cal/L carbohydrates; Research Diet, D12492) for 18 weeks. After this period, mice were treated with either vehicle (sterile water, N = 8) or MEAI (N = 11) daily for 28 days by gavage at a dose of 40 mg/kg/day. Age-matched control mice (N = 10) on a standard diet (STD; 14% kcal fat, 24% kcal protein, 62% kcal carbohydrates; NIH-31 rodent diet) received vehicle daily. The body weight of all mice was monitored daily, and total body fat and lean mass were determined by EchoMRI-100H (Echo Medical Systems LLC, Houston, Texas, USA). On day 29, at the end of the experimental period, mice were euthanized by a cervical dislocation under anesthesia. The kidneys, brain, liver, and fat pads were removed and weighed, and samples were either snap-frozen or fixed in buffered 4% formalin. Trunk blood was collected to determine the biochemical parameters.
On day 25 of the experiment, mice were subjected to an overnight fasting and then injected with glucose (1.5 g/kg i.p.) on the following day (day 26). Blood glucose levels were determined at 0, 15, 30, 45, 60, 90, and 120 min after injection using the Contour glucometer (Bayer, Pittsburgh, Pennsylvania, USA). The mice were then fasted for 6 h the next day (day 27) before being administered insulin (0.75 U/kg, i.p.; Actrapid vials, Novo Nordisk A/S, Bagsværd, Denmark). Blood glucose levels were determined at the same intervals as those described above. To assess insulin resistance, the homeostasis model assessment insulin resistance (HOMA-IR) was calculated as fasting serum insulin ([μU/mL] × fasting plasma glucose [mmol/L]/22.5). The relative insulin sensitivity index (ISI) was calculated as 1/(glucose × insulin) × 1000, with glucose expressed as mg/dL and insulin as mU/L.

[3] = system: hepatic lipid metabolism regulators; assay: Western blotting of liver proteins in DIO mice; assay type: in vivo; conditions: 40 mg/kg/day
Procedure: as §1
Liver samples were prepared in a RIPA buffer (25 mM Tris–HCl pH 7.6, 150 mM NaCl, 1% NP-40, 1% sodium deoxycholate, 0.1% SDS), and the homogenates were prepared by using the Bullet Blender and zirconium oxide beads (catalog no. ZROB10, Next Advanced, Inc., New York, USA). Protein concentrations were measured with the Pierce BCA Protein Assay Kit (catalog no. 23225, Thermo Scientific, Illinois, USA). Samples were resolved by SDS-PAGE (4–15% acrylamide, 150 V) and transferred to PVDF or nitrocellulose membranes using the Trans-Blot Turbo Transfer System (Bio-Rad, California). The membranes were then incubated for 1 h in 5% milk (in 1× M TBS-T) to block unspecific binding. The membranes were incubated overnight with cluster of differentiation 36 (CD36; Abcam, Cambridge, UK; Cat# ab252922), stearoyl-CoA desaturase 1 (SCD1; Cell Signaling Technology, Danvers, Massachusetts; Cat# 2794S), fatty acid synthase (FASN; Cell Signaling Technology, Danvers, Massachusetts, USA; Cat# 3180S), 5′-adenosine monophosphate (AMP)-activated protein kinase alpha (AMPKα; Cell Signaling Technology, Danvers, Massachusetts, USA; Cat# 2532S), phosphorylated-AMPKα (Cell Signaling Technology, Danvers, Massachusetts, USA; Cat# 2535S), acetyl-CoA carboxylase (ACC; Cell Signaling Technology, Danvers, Massachusetts, USA; Cat# 3662S), and phosphorylated ACC (Cell Signaling Technology, Danvers, Massachusetts, USA; Cat# 3661S) antibodies at 4 °C. Antirabbit/mouse horseradish peroxidase (HRP)-conjugated secondary antibodies were used for 1 h at room temperature, followed by chemiluminescence detection using Clarity Western ECL Blotting Substrate (Bio-Rad, California). Densitometry was quantified by using ImageJ software. Quantification was normalized to anti-β actin antibody (Abcam, Cambridge, UK; Cat# ab49900) or valosin-containing protein (VCP) (Abcam, Cambridge, UK; Cat# ab204290).

5-HT2B receptor = system: 5-HT2B receptor; set-up: method as in PMID 29458138; conditions: cited from earlier work
DIO C57BL/6 mice [4] = assay: Blood biochemistry in DIO mice; assay type: in vivo; conditions: 40 mg/kg/day
Procedure: as §1
Serum levels of alanine aminotransferase (ALT), aspartate aminotransferase (AST), alkaline phosphatase (ALP), cholesterol, triglycerides, high-density lipoprotein (HDL), and low-density lipoprotein (LDL) were quantified post-termination using the Cobas C-111 chemistry analyzer (Roche, Switzerland). Fasting blood glucose was measured using the Contour glucometer (Bayer, Pittsburgh, Pennsylvania, USA), while serum insulin was determined using an Ultra-Sensitive Mouse Insulin ELISA kit (Cat# 90080, Crystal Chem, Inc., Elk Grove Village, Illinois, USA). Serum-free fatty acid content was determined using a Free Fatty Acid Assay Kit (Cat# ab65341, Abcam, Cambridge, UK).

5-HT2B = 5-HT2B (Homo sapiens, UniProt P41595); assay: 5-HT2B calcium influx assay (agonist) in BA/F3 cells; assay type: cell-based; set-up: host or cells: BA/F3 cells
Chain of 5-HT2B (P41595 whole entry): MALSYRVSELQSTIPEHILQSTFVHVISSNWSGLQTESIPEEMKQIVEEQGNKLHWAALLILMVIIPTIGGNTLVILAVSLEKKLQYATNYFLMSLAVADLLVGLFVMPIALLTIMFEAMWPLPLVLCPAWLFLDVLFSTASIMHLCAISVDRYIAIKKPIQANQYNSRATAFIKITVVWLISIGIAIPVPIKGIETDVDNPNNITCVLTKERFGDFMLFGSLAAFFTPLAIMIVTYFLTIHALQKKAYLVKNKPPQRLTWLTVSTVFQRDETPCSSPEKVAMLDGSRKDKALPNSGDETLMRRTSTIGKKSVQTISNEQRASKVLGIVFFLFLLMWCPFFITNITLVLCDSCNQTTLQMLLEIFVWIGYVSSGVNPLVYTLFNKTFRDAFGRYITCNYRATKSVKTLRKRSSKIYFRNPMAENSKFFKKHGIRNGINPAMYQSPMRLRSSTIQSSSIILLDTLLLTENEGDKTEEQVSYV

[5] = system: dopamine transporter (DAT); set-up: method as in PMID 30904940; conditions: cited from earlier work

COc1ccc2c(c1)CC(N)C2.Cl (stereo not drawn) [MEAI, 2,3-Dihydro-5-methoxy-1H-inden-2-amine hydrochloride]
interaction with transporter [1]: interacts | HOMA-IR score (DIO C57BL/6 mice [2]): improved | ISI score (DIO C57BL/6 mice [2]): improved | fasting blood glucose levels (DIO C57BL/6 mice [2]): reduced | glucose metabolism (glucose and insulin tolerance tests) (DIO C57BL/6 mice [2]; days 26-27): significant improvement | CD36 protein levels [3]: remained unchanged | FASN protein levels [3]: significantly reduced | SCD1 protein levels [3]: significantly reduced | phosphorylated ACC (p-ACC) levels [3]: did not significantly affect | phosphorylated AMPK (p-AMPK) [3]: trend toward increased | binding inhibition (5-HT2B receptor): modest binding inhibition | insulin levels (DIO C57BL/6 mice [4]): reduced | circulating leptin levels (DIO C57BL/6 mice [4]; 28 days, vs HFD vehicle): effectively countered the HFD-induced elevation | serum serotonin levels (DIO C57BL/6 mice [4]; 28 days, vs HFD vehicle): did not significantly alter | circulating levels of adiponectin (DIO C57BL/6 mice [4]; across all groups): remained unchanged | circulating triglyceride levels (DIO C57BL/6 mice [4]; across all groups): remained largely unchanged | HDL levels (DIO C57BL/6 mice [4]; serum): without a significant change | HDL-to-LDL ratio (DIO C57BL/6 mice [4]; serum): positive shift | free fatty acids (DIO C57BL/6 mice [4]; serum): trend toward reduced | total cholesterol levels (DIO C57BL/6 mice [4]; serum, did not reach statistical significance): downward trend | LDL (DIO C57BL/6 mice [4]; serum, vs HFD vehicle): significant decrease | ALP levels (DIO C57BL/6 mice [4]; serum, vs HFD-vehicle): significantly reduced | ALT levels (DIO C57BL/6 mice [4]; serum, vs HFD-vehicle): did not significantly alter | AST levels (DIO C57BL/6 mice [4]; serum, vs HFD-vehicle): did not significantly alter | Emax (5-HT2B; BaF3, read-out: maximum response, calcium flux (percent of control response to serotonin at 0.25 μM), cytosolic Ca2+ mobilization, agonist mode): 18.6% | agonist activity at the 5-HT2B receptor (5-HT2B; calcium flux): did not act as an agonist | interaction with transporter [5]: interacts

— PMC11320730, “5-Methoxy-2-aminoindane Reverses Diet-Induced Obesity and Improves Metabolic Parameters in Mice: A Potential New Class of Antiobesity Therapeutics” (ACS Pharmacology & Translational Science, 2024)
